# Data reported in patent US9149035B2, “Antimicrobial composition” (CONVATEC TECHNOLOGIES, INC., priority 2005, dated 2015).
# Read-outs that look alike come from different tables or passages of the source.
# Assays:
# [1] = test system: Pseudomonas aeruginosa, Serratia marcescens, vancomycin resistant Enterococcus (VRE) and methicillin resistant Staphylococcus aureus (MRSA); conditions: EDTA 0.1-40% weight by volume; planktonic and biofilm state
# Ps aeruginosa [2] = conditions: poloxamer gel (biofilm state) vs without
# [3] = test system: Seven antibiotic resistant microorganisms
# C. kruzei = conditions: poloxamer gel (biofilm state) vs without
# Ps aeruginosa [4] = experiment: Corrected zone of inhibition of hydrated wound dressings on Poloxamer gel with MHB (biofilm bacteria); format: cell-based; conditions: bacteria grown in the biofilm state (poloxamer gel)
# Description: The antimicrobial dressings used in this study were ActicoatTM (Smith and Nephew) and AQUACEL® Ag Hydrofiber® (ConvaTec). Acticoat is a nanocrystalline silver antimicrobial barrier dressing which consists of a rayon/polyester non-woven inner core laminated between two layers of silver-coated high density polyethylene mesh (HDPE). The layers are held together with ultrasound […] comprised of sodium carboxymethylcellulose Hydrofiber® and ionic silver. The silver cations in AQUACEL® Ag are associated with the individual highly absorbent anionic carboxymethylcellulose fibres of the Hydrofiber® dressing. AQUACEL® Hydrofiber® dressing (without silver) was also used as a control. […] The mean dressing size was then subtracted from the mean zone of inhibition to determine the corrected zone of inhibition (CZOI). A CZOI test allows for any inherent variability in the shape and size of zones created by the silver dressings which may change in dimension following hydration.
smiles,measurement,setting,value
"O=C(O)CN(CCN(CC(=O)O)CC(=O)O)CC(=O)O [EDTA, Ethylenediaminetetra-acetic acid]",Killing of microorganisms,[1],effective in killing
same,Zones of inhibition,Serratia marcescens; 5% EDTA,no zones
same,Zones of inhibition,Serratia marcescens; 10% EDTA,no zones
same,Zones of inhibition with poloxamer compared with without,Ps aeruginosa [2],larger zones
same,Zones of inhibition,"[3]; 0.1% EDTA, any organism studied",no zones of inhibition were evident
same,Zones of inhibition,"[3]; 40% EDTA, all organisms tested",evident
same,Zones of inhibition in the presence of poloxamer compared with planktonic,[3]; poloxamer gel (biofilm state) vs without,slightly smaller
same,Zones of inhibition with poloxamer compared with without,C. kruzei,larger zones
same,Effect of EDTA on the effects of ionic silver,Ps aeruginosa [4],enhances
